Experimental data published in the supplement of paper PMC11368000.

Experiments:
Conditions in all cases: exposure time: 90 min
[1] = tested on: 1535 (donor line of iPSC-derived cardiomyocytes); experiment: POD (EC05) for increase in beat frequency (positive chronotrope) vs vehicle; higher = less potent (higher point of departure)
Experimental: (§1)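 Human iPSC-derived cardiomyocytes from 16 donors were exposed for 90 min at 37 °C to each PFAS at 0.1, 1, 10 and 100 µM in 0.5% DMSO, 384-well plates. Kinetic Ca2+ flux (FLIPR) and Hoechst nuclei counts were normalised to vehicle wells and fitted with a hierarchical Bayesian Hill model to give donor-specific PODs: EC05 for beat-rate increase or decrease and for decay-to-rise ratio increase (QT proxy), EC95 for peak-frequency loss (asystole), EC10 for total cell number loss. 0.03 µM is the lower bound.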

[2] = tested on: 11235 (donor line of iPSC-derived cardiomyocytes); experiment: as above
Experimental: as §1

[3] = tested on: 1565 (donor line of iPSC-derived cardiomyocytes); experiment: as above
Experimental: as §1

[4] = tested on: 30171 (donor line of iPSC-derived cardiomyocytes); experiment: as above
Experimental: as §1

[5] = tested on: 20032 (donor line of iPSC-derived cardiomyocytes); experiment: as above
Experimental: as §1

[6] = tested on: 1368 (donor line of iPSC-derived cardiomyocytes); experiment: as above
Experimental: as §1

[7] = tested on: 1392 (donor line of iPSC-derived cardiomyocytes); experiment: as above
Experimental: as §1

[8] = tested on: 30145 (donor line of iPSC-derived cardiomyocytes); experiment: as above
Experimental: as §1

[9] = tested on: 1118 (donor line of iPSC-derived cardiomyocytes); experiment: as above
Experimental: as §1

[10] = tested on: 1531 (donor line of iPSC-derived cardiomyocytes); experiment: as above
Experimental: as §1

[11] = tested on: 20084 (donor line of iPSC-derived cardiomyocytes); experiment: as above
Experimental: as §1

[12] = tested on: 1434 (donor line of iPSC-derived cardiomyocytes); experiment: as above
Experimental: as §1

[13] = tested on: 1516 (donor line of iPSC-derived cardiomyocytes); experiment: as above
Experimental: as §1

[14] = tested on: 1518 (donor line of iPSC-derived cardiomyocytes); experiment: as above
Experimental: as §1

[15] = tested on: 1083 (donor line of iPSC-derived cardiomyocytes); experiment: as above
Experimental: as §1

[16] = tested on: 1309 (donor line of iPSC-derived cardiomyocytes); experiment: as above
Experimental: as §1

[17] = tested on: 1531; experiment: POD (EC05) for increase in Ca2+ transient decay-to-rise ratio (QT prolongation) vs vehicle; higher = less potent (higher point of departure)
In short: (§2)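 Ca2+ flux in human iPSC-derived cardiomyocytes from 16 donors was recorded on a FLIPR Tetra for 100 s before and after a 90 min exposure at 37 °C to 0.1, 1, 10 and 100 µM (final, 0.5% DMSO). Donor-specific points of departure came from hierarchical Bayesian Hill fits to vehicle-normalised beat frequency, decay-to-rise ratio or peak frequency. A 5% change served as threshold, except for peak frequency, where it was a 95% loss.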

[18] = tested on: 1516; experiment: as above
In short: as §2

[19] = tested on: 1518; experiment: as above
In short: as §2

[20] = tested on: 1309; experiment: as above
In short: as §2

Row | SMILES | POD vs vehicle [1] [µM] | POD vs vehicle [2] [µM] | POD vs vehicle [3] [µM] | POD vs vehicle [4] [µM] | POD vs vehicle [5] [µM] | POD vs vehicle [6] [µM] | POD vs vehicle [7] [µM] | POD vs vehicle [8] [µM] | POD vs vehicle [9] [µM] | POD vs vehicle [10] [µM] | POD vs vehicle [11] [µM] | POD vs vehicle [12] [µM] | POD vs vehicle [13] [µM] | POD vs vehicle [14] [µM] | POD vs vehicle [15] [µM] | POD vs vehicle [16] [µM] | POD vs vehicle [17] [µM] | POD vs vehicle [18] [µM] | POD vs vehicle [19] [µM] | POD vs vehicle [20] [µM]
1 | COC(=O)C(F)(F)C(F)(F)OC(F)(C(F)(F)F)C(F)(F)OC(F)=C(F)F (configuration not stated) [Methyl_perfluoro(3-(1-ethenyloxypropan-2-yloxy)propanoate)] | > 100 | > 100 | > 100 | > 100 | > 100 | > 100 | > 100 | > 100 | > 100 | > 100 | > 100 | > 100 | > 100 | > 100 | > 100 | > 100 | 24.9 | > 100 | > 100 | > 100
2 | OCC(O)CC(F)(F)C(F)(F)C(F)(F)C(F)(F)C(F)(F)C(F)(F)C(F)(F)C(F)(F)F (configuration not stated) [1-(Perfluorofluorooctyl)propane-2,3-diol] | > 100 | 0.231 | > 100 | 0.136 | > 100 | > 100 | > 100 | > 100 | 3.1 | > 100 | > 100 | 0.19 | 0.516 | > 100 | > 100 | 0.394 | > 100 | > 100 | > 100 | > 100
3 | CN(CCO)S(=O)(=O)C(F)(F)C(F)(F)C(F)(F)C(F)(F)C(F)(F)C(F)(F)C(F)(F)C(F)(F)F [N-Methyl-N-(2-hydroxyethyl)perfluorooctanesulfonamide] | > 100 | – | > 100 | > 100 | 0.199 | > 100 | > 100 | > 100 | > 100 | > 100 | > 100 | – | – | > 100 | > 100 | > 100 | > 100 | > 100 | > 100 | > 100
4 | O=S(=O)(O)C(F)(F)C(F)(F)C(F)(F)C(F)(F)C(F)(F)C(F)(F)C(F)(F)C(F)(F)F [Perfluorooctanesulfonic_acid] | > 100 | > 100 | > 100 | > 100 | > 100 | > 100 | > 100 | > 100 | > 100 | > 100 | > 100 | > 100 | > 100 | > 100 | > 100 | > 100 | > 100 | > 100 | > 100 | > 100
5 | O=C(O)C(F)(F)C(F)(F)C(F)(F)C(F)(F)C(F)(F)F [Perfluorohexanoic_acid] | > 100 | > 100 | > 100 | > 100 | > 100 | > 100 | > 100 | > 100 | > 100 | > 100 | > 100 | > 100 | > 100 | > 100 | > 100 | > 100 | > 100 | > 100 | > 100 | > 100
6 | O=C(O)C(F)(F)C(F)(F)C(F)(F)OC(F)(F)F [Perfluoro(4-methoxybutanoic)_acid] | > 100 | > 100 | > 100 | > 100 | > 100 | > 100 | > 100 | > 100 | > 100 | > 100 | > 100 | > 100 | > 100 | > 100 | > 100 | > 100 | > 100 | > 100 | > 100 | > 100
7 | O=S(=O)(O)CCC(F)(F)C(F)(F)C(F)(F)C(F)(F)F [4:2 Fluorotelomer sulfonic acid] | > 100 | > 100 | > 100 | > 100 | > 100 | > 100 | > 100 | – | > 100 | > 100 | > 100 | > 100 | > 100 | > 100 | > 100 | > 100 | > 100 | > 100 | > 100 | > 100
8 | O=S(=O)(O)C(F)(F)C(F)(F)C(F)(F)C(F)(F)F [Perfluorobutanesulfonic_acid] | > 100 | > 100 | > 100 | > 100 | > 100 | > 100 | > 100 | – | > 100 | > 100 | > 100 | > 100 | > 100 | > 100 | – | > 100 | > 100 | 39.7 | > 100 | > 100
9 | NC(=O)C(F)(F)C(F)(F)C(F)(F)C(F)F | > 100 | > 100 | > 100 | > 100 | > 100 | > 100 | > 100 | – | > 100 | > 100 | > 100 | > 100 | > 100 | > 100 | > 100 | > 100 | 2.04 | – | 0.19 | > 100
10 | O=C(O)C(F)(F)C(F)(F)C(F)(F)C(F)(F)C(F)(F)C(F)(F)C(F)(F)C(F)(F)F [Perfluorononanoic_acid] | > 100 | > 100 | > 100 | > 100 | > 100 | > 100 | > 100 | – | > 100 | > 100 | > 100 | > 100 | > 100 | > 100 | > 100 | > 100 | > 100 | – | – | > 100
11 | O=C(O)CCC(F)(F)C(F)(F)C(F)(F)F [3:3 Fluorotelomer carboxylic acid] | > 100 | > 100 | > 100 | > 100 | > 100 | > 100 | > 100 | > 100 | > 100 | > 100 | > 100 | > 100 | > 100 | > 100 | > 100 | > 100 | > 100 | – | – | > 100
